Source: PMC11522691, “Structure of the turnover-ready state of an ancestral respiratory complex I” (Nature Communications, 2024)

Molecular target: T1, P. denitrificans complex I (Pd-CI, Pd-CI-ND), ubiquinone-binding site (Paracoccus denitrificans, UniProt A1B487+A1B495+A1B497)
T1 construct: gene nuoH; native 18-subunit complex from P. denitrificans membranes, His6 tag on Nqo5 (NDUFS3), DDM-purified, reconstituted in MSP2N2 phospholipid nanodiscs; NDUFS2-Arg65 dimethylated; ND3 N-formylMet; with NADH-quinone oxidoreductase subunit 1 (subunit F); NADH-quinone oxidoreductase subunit 2 (subunit E); NADH-quinone oxidoreductase subunit 3 (subunit G); NADH-quinone oxidoreductase subunit 5 (subunit C); NADH-quinone oxidoreductase subunit 7 (subunit A); NADH-quinone oxidoreductase subunit 9 (subunit I); NADH-quinone oxidoreductase subunit 10 (subunit J); NADH-quinone oxidoreductase subunit 11 (subunit K); NADH-quinone oxidoreductase subunit 12 (subunit L); NADH-quinone oxidoreductase subunit 13 (subunit M); NADH-quinone oxidoreductase subunit 14 (subunit N); NADH dehydrogenase [ubiquinone] iron-sulfur protein 4 homologue; NADH dehydrogenase [ubiquinone] iron-sulfur protein 6 homologue; NADH dehydrogenase [ubiquinone]; 1 alpha subcomplex subunit 12 homologue; Protein-L-isoaspartate O-methyltransferase
Assay: cryo-EM structure of the complex, […] Å
Details: closed resting state, oxidised; headgroup partially inserted near ND1-Arg38, Trp41, Met244, Lys295 and NDUFS7-Arg77; nanodiscs with added Q10

T1 sequence (A1B497 whole entry): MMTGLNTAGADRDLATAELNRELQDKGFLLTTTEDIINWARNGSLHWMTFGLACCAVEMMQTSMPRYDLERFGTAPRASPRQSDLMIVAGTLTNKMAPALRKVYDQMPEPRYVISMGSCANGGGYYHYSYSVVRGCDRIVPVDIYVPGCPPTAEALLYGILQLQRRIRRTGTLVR
T1 sequence (A1B495 whole entry): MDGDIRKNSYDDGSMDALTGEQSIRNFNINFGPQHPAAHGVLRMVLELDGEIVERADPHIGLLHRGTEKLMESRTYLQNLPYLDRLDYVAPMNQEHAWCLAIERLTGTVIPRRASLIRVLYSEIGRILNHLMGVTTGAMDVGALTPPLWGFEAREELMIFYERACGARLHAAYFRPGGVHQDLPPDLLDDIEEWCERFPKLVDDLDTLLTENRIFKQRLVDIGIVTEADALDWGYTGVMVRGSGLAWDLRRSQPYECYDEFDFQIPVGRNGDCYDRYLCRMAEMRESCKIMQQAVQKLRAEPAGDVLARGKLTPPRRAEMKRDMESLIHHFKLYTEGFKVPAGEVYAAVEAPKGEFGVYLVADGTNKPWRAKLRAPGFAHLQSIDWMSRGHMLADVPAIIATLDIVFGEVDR
T1 sequence (A1B487 whole entry): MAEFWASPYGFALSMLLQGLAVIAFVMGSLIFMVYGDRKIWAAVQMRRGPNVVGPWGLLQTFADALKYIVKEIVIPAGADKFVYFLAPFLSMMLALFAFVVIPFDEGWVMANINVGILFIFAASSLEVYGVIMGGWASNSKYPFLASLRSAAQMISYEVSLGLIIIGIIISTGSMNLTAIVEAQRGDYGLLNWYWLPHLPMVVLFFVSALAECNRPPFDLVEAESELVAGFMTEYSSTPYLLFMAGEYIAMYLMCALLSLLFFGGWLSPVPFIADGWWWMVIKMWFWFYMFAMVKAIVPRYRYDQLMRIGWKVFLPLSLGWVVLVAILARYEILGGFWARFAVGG

COC1=C(OC)C(=O)C(C/C=C(\C)CC/C=C(\C)CC/C=C(\C)CC/C=C(\C)CC/C=C(\C)CC/C=C(\C)CC/C=C(\C)CC/C=C(\C)CC/C=C(\C)CCC=C(C)C)=C(C)C1=O [ubiquinone-10]
cryo-EM structure of the complex, 2.3 Å: Density in the central polar region of the channel has been assigned to a partially inserted ubiquinone-10
